Reference: BindingDB's records for patent US20240025883 (Hoffmann-La Roche, 2024)

Target: Uracil nucleotide/cysteinyl leukotriene receptor (Homo sapiens, UniProt Q13304)
Experiment: GPR17 cAMP Assay Protocol
Method: GPR17 cAMP Assay Protocol: CHO-K1 cells stably expressing vector containing untagged human GPR17 short isoform (Roche) were cultured at 37° C./5% CO2 in DMEM (Dulbecco's Modified Eagle Medium):F-12 (1:1) supplemented with 10% foetal bovine serum and 400 μg/ml Geneticin. Changes in intracellular cyclic adenosine monophosphate (cAMP) levels were quantified using the Nano-TRF Detection Assay kit (Roche Diagnostics, Cat. No. 05214386001). This assay allows for direct cAMP quantification in a homogeneous solution, cAMP is detected based on time-resolved fluorescence energy transfer (TR-FRET) and competitive binding of ruthenylated cAMP and endogenous cAMP to an anti-cAMP monoclonal antibody labeled with AlexaFluor-700. The Ruthenium complex serves as the FRET donor and transfers energy to AlexaFluor-700. The FRET signal is inversely proportional to the cAMP concentration. CHO-GPR17S cells were detached with Accutase and resuspended in assay buffer consisting of Hank's Balanced Salt Solution (HBSS), 10 mM HEPES (4-(2-hydroxyethyl) piperazine-1-ethanesulfonic acid solution) and 0.1% bovine serum albumin (pH 7.4). The cells were seeded in black 384-well plates (Corning) at a density of 10,000 cells/20 μl assay buffer until the addition of compounds.

Sequence of Uracil nucleotide/cysteinyl leukotriene receptor (Q13304 whole entry): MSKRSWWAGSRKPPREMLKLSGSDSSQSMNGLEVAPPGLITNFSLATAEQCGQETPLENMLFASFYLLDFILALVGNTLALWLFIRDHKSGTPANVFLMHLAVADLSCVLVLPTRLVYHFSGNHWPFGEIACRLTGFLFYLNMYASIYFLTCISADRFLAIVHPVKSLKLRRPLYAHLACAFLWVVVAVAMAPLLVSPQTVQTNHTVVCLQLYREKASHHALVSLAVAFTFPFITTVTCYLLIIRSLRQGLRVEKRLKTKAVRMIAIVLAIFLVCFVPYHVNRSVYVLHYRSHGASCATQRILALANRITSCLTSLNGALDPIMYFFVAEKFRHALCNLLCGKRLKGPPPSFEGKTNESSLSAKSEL

Row | Structure (SMILES) | IC50 [µM]
1 | COc1nc(NS(=O)(=O)c2c[nH]c3cc(F)ccc23)nc(OC)c1OC(F)(F)CF [US20240025883, Example 87] | 0.066
2 | COc1nc(NS(=O)(=O)c2c[nH]c3nc(C(F)F)ccc23)nc(OC)c1OCC(F)F [US20240025883, Example 96] | 0.029
3 | COc1nc(NS(=O)(=O)c2c[nH]c3cc(SC)ccc23)ncc1CC(F)F [US20240025883, Example 193] | 0.096
4 | COc1nc(NS(=O)(=O)c2c[nH]c3c(C#N)c(Cl)ccc23)nc(OC)c1OCCF [US20240025883, Example 225] | 0.032
5 | COc1nc(NS(=O)(=O)c2c[nH]c3c(C#N)c(Cl)ccc23)nc(OC)c1OCC(F)F [US20240025883, Example 226] | 0.035
6 | COc1nc(NS(=O)(=O)c2c[nH]c3c(C#N)c(Cl)ccc23)nc(OC)c1CC(F)F [US20240025883, Example 227] | 0.022

Continued by falling IC50, values first:

Row | IC50 [µM] | Structure (SMILES)
7 | 0.161 | COc1nc(NS(=O)(=O)c2c[nH]c3c4c(ccc23)COC4)ncc1CC(F)F [US20240025883, Example 228]
8 | 0.068 | COc1nc(NS(=O)(=O)c2c[nH]c3nc(C(F)F)ccc23)nc(OC)c1OCCF [US20240025883, Example 95]
9 | 0.05 | COc1nc(NS(=O)(=O)c2c[nH]c3nc(C(F)F)ccc23)nc(OC)c1OC(F)(F)CF [US20240025883, Example 97]
10 | 0.017 | COc1nc(NS(=O)(=O)c2c[nH]c3cc(Cl)ccc23)nc(OC)c1OCC(F)F [US20240025883, Example 54]
11 | 0.017 | COc1nc(NS(=O)(=O)c2c[nH]c3cc(Cl)ccc23)nc(OC)c1OC(F)(F)CF [US20240025883, Example 55]
12 | 0.014 | COc1nc(NS(=O)(=O)c2c[nH]c3cc(C(F)F)ccc23)nc(OC)c1OCC(F)F [US20240025883, Example 102]
